Holding throughout (assay type): cell-based
In assay [1] the test system is Staphylococcus aureus 226. As to the kind of experiment: in vitro antimicrobial activity, two-fold agar plate dilution method, S. aureus 226. Particulars: Table 1, S. aureus 226, 37° C., 20 hours, read-out: minimum inhibitory concentration (MIC). As for the experimental part:
(§1) The in vitro tests of antimicrobial activity of the compared compounds were determined by the two-fold agar plate dilution method described as follows: […]

For assay [2], the system named is Staphylococcus aureus 278. The experiment in a line: in vitro antimicrobial activity, two-fold agar plate dilution method, S. aureus 278. Particulars: Table 1, S. aureus 278, 37° C., 20 hours, read-out: minimum inhibitory concentration (MIC). As for the experimental part: as §1
Assay [3] deals with Staphylococcus aureus 213. As to the kind of experiment: in vitro antimicrobial activity, two-fold agar plate dilution method, S. aureus 213. The conditions noted are these: Table 1, S. aureus 213, 37° C., 20 hours, read-out: minimum inhibitory concentration (MIC). As for the experimental part:
as §1

The test system of assay [4] is Staphylococcus aureus 277. As to the kind of experiment: in vitro antimicrobial activity, two-fold agar plate dilution method, S. aureus 277. Particulars: Table 1, S. aureus 277, 37° C., 20 hours, read-out: minimum inhibitory concentration (MIC). How it is done: as §1
Assay [5] relates to Bacillus subtilis ATCC-6633. As to the kind of experiment: in vitro antimicrobial activity, two-fold agar-plate dilution method, B. subtilis ATCC-6633. Particulars: 20 hours. As for the experimental part:
(§2) In vitro antimicrobial activity was determined by the two-fold agar-plate dilution method as described below.
(§3) One loopful of an overnight culture of each test strain in Trypticase-soy broth (10^8 viable cells per ml) was streaked on heart infusion agar (HI-agar) containing graded concentration of antibiotics, and the minimum inhibitory concentration (MIC) was expressed in terms of meg/ml after incubation at 37° C. for 20 hours.
(§4) The data in Table 1 below present a comparison between the 2-(C1 -C6 alkyl)-cephem compounds of the present invention and known cephem compounds structurally analogous to the present compounds, differing only by alkyl substitution in the 3-position. The in vitro tests of antimicrobial activity of the compared compounds were determined by the two-fold agar plate dilution method described as follows:
(§5) One loopful of an overnight culture of each test strain in Trypticase-soy broth (10^8 viable cells per ml) was streaked on heart infusion agar (HI sugar) containing graded concentration of antibiotics, and the minimum inhibitory concentration (MIC) was expressed in terms of mcg/ml after incubation at 37° C. for 20 hours.

For assay [6], the system named is Staphylococcus aureus 206. The experiment in a line: in vitro antimicrobial activity, two-fold agar plate dilution method, S. aureus 206. The conditions noted are these: Table 1, S. aureus 206, 37° C., 20 hours, read-out: minimum inhibitory concentration (MIC). How it is done:
as §1

In assay [7] the test system is Staphylococcus aureus 209 P JC-1. The experiment in a line: in vitro antimicrobial activity, two-fold agar-plate dilution method, S. aureus 209 P JC-1. Particulars: 20 hours. How it is done: as §2, §3, §4, §5
[8] abbreviates: ATCC6633, Table 1, B. subtilis ATCC-6633, 37° C., read-out: minimum inhibitory concentration (MIC).
[9] abbreviates: 209PJC1, Table 1, S. aureus 209 P JC-1, 37° C., read-out: minimum inhibitory concentration (MIC).
Where [10] appears, read: ATCC6633, B. subtilis ATCC-6633, 37° C., HI-agar, read-out: MIC.
Setting [11] is: S. aureus 209-P JC-1, 37° C., HI-agar, read-out: MIC.

Drawing on US4308380A, “2-Lower alkyl-2 or 3-cephem-4-carboxylic acid derivatives” (Fujisawa Pharmaceutical Co., Ltd., priority 1973, dated 1981), this text covers MIC for seven compounds.

Each structure is given as a SMILES string. Values after ≈ are worked out from the molar mass of the structure shown. Where two headings read alike, the source gives them in different places.

For `CC1=C(C(=O)O)N2C(=O)C(NC(=O)Cc3cccs3)[C@H]2SC1` (some centres unmarked) [cited compound (5), 3-Methyl-7-[2-(2-thienyl)acetamido]-3-cephem-4-carboxylic acid, reference compound], the MIC in assay [1] was found to be 12.5 mg/L (≈ 36.9 µM); in assay [2], 6.25 mg/L (≈ 18.5 µM); in assay [3], 12.5 mg/L (≈ 36.9 µM); in assay [4] it was 12.5 mg/L (≈ 36.9 µM); in assay [5] (setting [8]), 0.78 mg/L (≈ 2.3 µM); in assay [6], 3.13 mg/L (≈ 9.25 µM). For the same compound, the MIC in assay [7] (setting [9]) was 3.13 mg/L (≈ 9.25 µM).

As to `CC1C=C(C(=O)O)N2C(=O)C(NC(=O)C(OC(=O)c3ccncc3)c3ccccc3)[C@H]2S1` (some centres unmarked) [Applicants' compound (4), 2-Methyl-7-(2-isonicotinoyloxy-2-phenylacetamido)-3-cephem-4-carboxylicacid], the MIC in assay [1] is 0.78 mg/L (≈ 1.72 µM); in assay [2] it was 1.56 mg/L (≈ 3.44 µM); in assay [3], 1.56 mg/L (≈ 3.44 µM); in assay [4] it was 6.25 mg/L (≈ 13.8 µM); in assay [5] (setting [10]), 0.78 mg/L (≈ 1.72 µM); in assay [5] (setting [8]), 0.78 mg/L (≈ 1.72 µM). The MIC was 0.78 mg/L (≈ 1.72 µM) in assay [6], 0.39 mg/L (≈ 0.86 µM) in assay [7] (setting [9]) and 0.39 mg/L (≈ 0.86 µM) in assay [7] (setting [11]).

Turning to `C=CCSCC(=O)NC1C(=O)N2C(C(=O)O)=CC(C)S[C@H]12` (some centres unmarked) [Applicants' compound (14), 2-Methyl-7-[2-(allylthio)acetamido]-3-cephem-4-carboxylic acid], the MIC in assay [1] amounted to 3.13 mg/L (≈ 9.53 µM); in assay [2], 3.13 mg/L (≈ 9.53 µM); in assay [3], 6.25 mg/L (≈ 19 µM); in assay [4], 1.56 mg/L (≈ 4.75 µM); in assay [5] (setting [10]) it was 1.56 mg/L (≈ 4.75 µM); in assay [5] (setting [8]) it was 1.56 mg/L (≈ 4.75 µM). Further, the figures for the MIC in assay [6], in assay [7] (setting [9]) and in assay [7] (setting [11]) were 3.13 mg/L (≈ 9.53 µM), 1.56 mg/L (≈ 4.75 µM) and 1.56 mg/L (≈ 4.75 µM), respectively.

As to `CC1C=C(C(=O)O)N2C(=O)C(NC(=O)Cc3cccnc3)[C@H]2S1` (some centres unmarked) [Applicants' compound (15), 2-Methyl-7-[2-(3-pyridyl)acetamido]-3-cephem-4-carboxylic acid], the MIC in assay [1] amounted to 6.25 mg/L (≈ 18.7 µM); in assay [2], 6.25 mg/L (≈ 18.7 µM); in assay [3] it was 6.25 mg/L (≈ 18.7 µM); in assay [4], 25 mg/L (≈ 75 µM); in assay [5] (setting [10]), 0.78 mg/L (≈ 2.34 µM); in assay [5] (setting [8]), 0.78 mg/L (≈ 2.34 µM). Moreover, the MIC in assay [6] came to 6.25 mg/L (≈ 18.7 µM); in assay [7] (setting [9]), 3.13 mg/L (≈ 9.39 µM); in assay [7] (setting [11]), 3.13 mg/L (≈ 9.39 µM).

Turning to `CC1C=C(C(=O)O)N2C(=O)C(NC(=O)C(O)c3cccs3)[C@H]2S1` (some centres unmarked) [Applicants' compound (2), 2-Methyl-7-[2-hydroxy-2-(2-thienyl)acetamido]-3-cephem-4-carboxylic acid], the MIC in assay [1] was determined as 3.13 mg/L (≈ 8.83 µM); in assay [2] it was 3.13 mg/L (≈ 8.83 µM); in assay [3], 3.13 mg/L (≈ 8.83 µM); in assay [4], 3.13 mg/L (≈ 8.83 µM); in assay [5] (setting [10]), 0.78 mg/L (≈ 2.2 µM); in assay [5] (setting [8]), 0.78 mg/L (≈ 2.2 µM). The MIC in assay [6], in assay [7] (setting [9]) and in assay [7] (setting [11]) was 0.78 mg/L (≈ 2.2 µM) in each case.

For the compound `CC1=C(C(=O)O)N2C(=O)C(NC(=O)Cc3cnsn3)[C@H]2SC1` (some centres unmarked) [cited compound (12), 3-Methyl-7-[2-(1,2,5-thiadiazol-3-yl)acetamido]-3-cephem-4-carboxylic acid, reference compound], the MIC came out at 25 mg/L (≈ 73.4 µM) in assay [1]; 25 mg/L (≈ 73.4 µM) in assay [2]; 25 mg/L (≈ 73.4 µM) in assay [3]; 25 mg/L (≈ 73.4 µM) in assay [4]; 3.13 mg/L (≈ 9.2 µM) in assay [5] (setting [8]); 12.5 mg/L (≈ 36.7 µM) in assay [6]. Moreover, the MIC in assay [7] (setting [9]) was found to be 12.5 mg/L (≈ 36.7 µM).

For `CC1C=C(C(=O)O)N2C(=O)C(NC(=O)C(O)c3ccccc3)[C@H]2S1` (some centres unmarked) [Applicants' compound (7), 2-Methyl-7-(2-hydroxy-2-phenylacetamido)-3-cephem-4-carboxylic acid], the MIC in assay [1] was 1.56 mg/L (≈ 4.48 µM); in assay [2], 1.56 mg/L (≈ 4.48 µM); in assay [3], 1.56 mg/L (≈ 4.48 µM); in assay [4], 6.25 mg/L (≈ 17.9 µM); in assay [5] (setting [10]), 0.39 mg/L (≈ 1.12 µM); in assay [5] (setting [8]), 0.39 mg/L (≈ 1.12 µM). In addition, the results for the MIC in assay [6], in assay [7] (setting [9]) and in assay [7] (setting [11]) were 1.56 mg/L (≈ 4.48 µM), 0.78 mg/L (≈ 2.24 µM) and 0.78 mg/L (≈ 2.24 µM), respectively.
